Source: US4269717A, “Boiler additives for oxygen scavenging” (priority 1980, dated 1981)
Read-outs that look alike come from different tables or passages of the source.

Legend:
[1] = Solubility in water; assay type: physicochemical
[2] = 227-239° F.; for % O2 Removal / Final O2: initial O2 40 ppb; for Oxygen scavenging activity relative to hydrazine: Table II
Method: A second more extensive group of potential oxygen scavengers were compared, again using a small laboratory boiler and oxygen saturated feed water containing sodium hydroxide. […] The hydrazine salts among this group are no less toxic than hydrazine and therefore were eliminated from further study. […] In addition, the carbohydrazide was preferred because it is a solid at room temperature and could therefore be used in dry formulations.
INITIAL SCREENING AT 227-239° F.

[3] = Carbohydrazide vs. hydrazine in oxygen removal, once-through apparatus (Table III); details: initial O2 7.4 ppm, 227-239° F., pH about 10.5
Method: A once-through experimental apparatus for simulating boiler water transport was utilized in this example. Water temperature in this example was maintained at about 227°-239° F. and pH at about 10.5.

[4] = Metal passivation in experimental firerod boiler (Table IV); details: 600 p.s.i., 48 hour test
From the text: Metal passivation studies were undertaken using an experimental firerod boiler under the following test conditions:
10 boiler water concentrations
40 ppm M alkalinity (as CaCO3)
A blank containing no oxygen scavenger was followed by test runs with hydrazine, carbohydrazide, and sodium sulfite.
*Tubes ranked by appearance of metal surface.

[5] = Carbohydrazide low temperature hydrolysis (Table V); assay type: physicochemical; details: for ppm Hydrazine: 100 ppm hydrazine control, pH 10.25
Method: Low temperature hydrolysis studies of carbohydrazide were carried out using reagent grade carbohydrazide containing approximately 2.7±0.1% hydrazine as an impurity. A 1,000 ppm carbohydrazide solution and a 100 ppm hydrazine solution were prepared with deaerated, deionized water. Half of the carbohydrazide solution was adjusted to pH 10.2 with sodium hydroxide and the other half was left at its original pH of 6.9. The solutions were poured into Nessler tubes to overflowing and sealed with stoppers fitted with hypodermic needles to allow pressure release with minimum air contact. Four samples of both of the carbohydrazide solutions and two samples of the hydrazine control were stored at varying temperatures for varying periods of time, all as reported in Table V below.

[6] = Initial oxygen scavenger screening in laboratory boiler at 200-220° F. (Table I)
Method: A small laboratory boiler was used to screen a number of potential oxygen scavengers. Oxygen saturated feed water which contained sodium hydroxide was used as the feed. The residence time for the treatment chemical was approximately 11 minutes. The boiler water temperature was maintained at between 200°-220° F. In these tests, 2% hydroquinone was used as the catalyst.
INITIAL SCREENING AT 200-220° F.

Row | Compound | % O2 Removal [2] [%] | Final O2 [2] [ppb] | Oxygen scavenging activity relative to hydrazine [2] | further results
1 | NNC(=O)C(=O)NN [Oxalic dihydrazide] | – | – | – | Solubility in water (Table II) [1]: Insoluble In Water
2 | NN [Hydrazine, hydrazine, reference compound] | 87.5 | 5 | – | % O2 Removal ([3]; ppm scavenger/ppm O2 0.1/1): 15.4%; Final O2 ([3]; ppm scavenger/ppm O2 0.1/1): 6.26 ppm; % O2 Removal ([3]; ppm scavenger/ppm O2 0.9/1): 70.5%; Final O2 ([3]; ppm scavenger/ppm O2 0.9/1): 2.18 ppm; % O2 Removal ([3]; ppm scavenger/ppm O2 10.0/1): 99.2%; Final O2 ([3]; ppm scavenger/ppm O2 10.0/1): 0.06 ppm; Tube Rank (by appearance of metal surface) ([4]; dosage 2 ppm): 3; ppm Hydrazine ([5]; 120° F., 6 days): 86.6 ppm; ppm Hydrazine ([5]; 180° F., 6 days): 87.6 ppm; ppm Hydrazine ([5]; Room Temp. (77° F.), 6 days): 89.8 ppm; ppm Hydrazine ([5]; time 0): 97.4 ppm; Loss of initial hydrazine concentration ([5]; hydrazine control, after 6 days): approximately 10%
3 | COC(=O)NNC(=O)OC [Dimethyldihydrazodicarboxylate] | 50 | 20 | – | –
4 | Di (methylformal)diazine | 0 | 40 | – | –
5 | NN.O=S(=O)(O)O [Hydrazine sulfate, Hydrazinium sulfate, reference compound] | 87.5 | 5 | activity comparable to hydrazine | Final O2 ([6]; dosage 500 ppb, pH 10.5, initial O2 40 ppb, 2% hydroquinone catalyst): 10 ppb
6 | O=C(O)NNC(=O)O [Disodiumdihydrazodicarboxylate] | 75 | 10 | activity comparable to hydrazine | –
7 | O=S([O-])[O-].[Na+].[Na+] [Na2 SO3, sodium sulfite, reference compound] | – | – | – | Final O2 ([6]; dosage 400 ppb, pH 9.65, initial O2 40 ppb): .005 ppb; Tube Rank (by appearance of metal surface) ([4]; dosage 20-40 ppm residual): 2
8 | NN.NN.O=S(O)O [Hydrazinium sulfite, reference compound] | – | 5 | activity comparable to hydrazine | –
9 | NNC=O [Formohydrazide] | 0 | 40 | – | –
10 | O=CNNC=O [Diformohydrazide] | 0 | 40 | – | –
